Assay results published in PubChem BioAssay (NCI).
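Exposure lasted 48 hours, with cells grown in 96-well plates and compounds tested at five concentrations. TGI: total growth inhibition.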

Experiments:
Test in all cases: NCI anticancer screen, dose series, 48 h
[1] = system: SK-OV-3 ovarian
[2] = system: CCRF-CEM leukemia
[3] = system: PC-3 prostate
[4] = system: MCF7 breast
[5] = system: K-562 leukemia
[6] = system: UO-31 renal
[7] = system: NCI-H226 lung
[8] = system: SK-MEL-2 melanoma
[9] = system: 786-0 renal
[10] = system: HS 578T breast

SMILES	TGI [1] [µM]	TGI [2] [µM]	TGI [3] [µM]	TGI [4] [µM]	TGI [5] [µM]	TGI [6] [µM]	TGI [7] [µM]	TGI [8] [µM]	TGI [9] [µM]	TGI [10] [µM]
CCC(C(=O)c1ccc(OC)c(OC)c1)N(C(=O)C(F)(F)F)C(C)c1ccccc1 (stereo not given)	> 100	> 100	> 100	> 100	> 100	> 100	–	–	–	–
CC(C)(C)C1CCC2(CC1)c1[nH]c3ccccc3c1C1(CCC(C(C)(C)C)CC1)c1[nH]c3ccccc3c12 (stereo not given)	> 100	> 100	–	–	> 100	> 100	> 100	> 100	> 100	–
Nc1c(C(=O)c2ccc(Cl)cc2)[nH]c(NCc2ccccc2)c1C(=S)Nc1ccccc1	49.8	5.54	18.4	3.08	4.04	3.02	27.2	3.58	3.14	–
Nc1ccc2[nH]c(-c3cccc(Cl)c3)cc(=O)c2c1	> 100	> 100	> 100	> 100	–	–	–	–	> 100	> 100
COc1ccc(Nc2nc3c([nH]2)c(=O)n(C)c(=O)n3C)cc1	> 10	> 10	> 10	> 10	> 10	–	–	–	> 10	–
CCCCc1ccc(Nc2nc3c(ncn3COCCO)c(=O)[nH]2)cc1	> 100	> 100	–	> 100	> 100	> 100	> 100	> 100	> 100	> 100
C=C1CC(C)(c2ccc(Nc3nc4ccccc4c4occc34)cc2)OC1=O (stereo not given)	24.1	3.76	20	> 100	> 100	–	1.94	–	3.79	–
O=[N+]([O-])c1ccc(-c2ccc(-c3csc(Nc4ccccn4)n3)o2)cc1	> 100	–	–	–	> 100	> 100	–	> 100	–	–
CC1(C)OCC2OC3([C@H]4OC(C)(C)O[C@@H]4CO)OC(C)(C)OC3C2O1 (stereo not given in full)	–	> 100	> 100	> 100	> 100	> 100	> 100	> 100	> 100	–
CCC(=O)Oc1c2ccsc2c(OC(=O)CC)c2ccsc12	15.8	9.52	–	3.43	–	1.45	4.09	1.39	4.33	1.2
O=C(N/N=C/c1cc(Br)cc(Br)c1[O-])c1ccccc1O.O=C(N/N=C/c1cc(Br)cc(Br)c1[O-])c1ccccc1O.[Fe+2]	13.9	24.9	–	–	–	25.3	7.41	21.4	–	–
Cc1cn([C@@H]2C[C@H]2CO)c(=O)[nH]c1=O	–	> 100	> 100	> 100	> 100	> 100	> 100	> 100	> 100	–
COc1ccc2c(c1)CN1C(=N2)CSC1c1ccccc1Cl (stereo not given)	79.2	–	70.5	> 100	30.5	38.3	31.3	37.3	34.5	82.5
COc1c(Br)cc(CC(N)=O)c(O)c1Br	> 100	> 100	–	–	> 100	> 100	> 100	> 100	–	–
N#Cc1cc2c(cc1Cl)Sc1nccn1S2(=O)=O	18.1	–	8.93	> 23.4	17.2	10.7	18	12.8	28.8	8.37
C=CCOCCCCC(C(C)=O)C(=O)OC (stereo not given)	> 100	> 100	–	–	> 100	> 100	> 100	> 100	> 100	–
COC(=O)Cc1c([C@H]2[C@H](CC(=O)OC)c3ccccc3N2C(C)=O)[nH]c2ccccc12	> 100	> 100	> 100	–	> 100	> 100	> 100	> 100	> 100	> 100
O=C(Cc1ccccc1)NN1C(=O)/C(=C\c2ccc([N+](=O)[O-])cc2)SC1=Nc1ccccc1	> 100	> 100	–	> 100	> 100	> 100	> 100	> 100	> 100	> 100
COC(=O)C1CC2(c3ccccc3)C(=O)c3ccccc3N2O1 (stereo not given)	> 100	> 100	–	–	> 100	–	> 100	> 100	> 100	–

SMILES	TGI [1] [µM]	TGI [2] [µM]	TGI [3] [µM]	TGI [4] [µM]	TGI [5] [µM]	TGI [6] [µM]	TGI [7] [µM]	TGI [8] [µM]	TGI [9] [µM]	TGI [10] [µM]
CC1(C(=O)O)CCCC1C(=O)O (stereo not given)	–	> 100	> 100	–	> 100	> 100	> 100	> 100	> 100	> 100
O=C1C=CC(=O)c2c(O)c(NCCc3ccc(O)cc3)c(Cl)c(O)c21	> 10	> 10	> 10	> 10	> 10	–	> 10	> 10	> 10	–
O=[N+]([O-])c1ccc(NC(=S)N=Nc2c(O)[nH]c3ccc(Br)cc23)cc1	28.9	–	20.7	22	> 100	–	38.1	28.4	21.8	39.6
NC(N)=Nc1ncccc1[N+](=O)[O-]	> 100	> 100	–	> 64.4	> 100	> 100	> 100	> 100	–	–
COC1(OC)CCCCC2c3cccc(OC(C)=O)c3C21OC(C)=O (stereo not given)	> 100	> 100	–	–	> 100	> 100	> 100	> 100	> 100	–
CNC(=O)N(CCC#N)[C@H]1CCCC[C@@H]1N(C(=O)NC)c1ccccc1	> 100	> 100	> 100	> 100	> 100	> 100	> 100	> 100	> 100	–
FC(F)(F)c1ccc2nc3n(c2c1)C(c1c(Cl)cccc1Cl)SC3 (stereo not given)	27.9	–	31.5	37.9	–	26.8	35.4	42.3	28.4	68.9
Cc1cn(C(C)OCCN2C(=O)c3ccccc3C2=O)c(=O)[nH]c1=O (stereo not given)	–	> 100	> 100	> 100	> 100	> 100	> 100	> 100	> 100	–
COC(=O)c1ccc(C=Nc2ccc(S(N)(=O)=O)cc2)cc1	> 100	83	> 100	> 100	–	> 100	> 100	> 100	> 100	> 100
O=c1c(-c2ccc(Cl)cc2)nnc2n(Cc3ccccc3)c3ccccc3n12	–	> 100	> 100	> 100	–	> 100	> 100	> 100	42.8	> 100
CN(C)S(=O)(=O)Nc1nnc(S(N)(=O)=O)s1	> 100	–	> 100	> 100	> 100	> 100	> 100	> 100	> 100	> 100
Clc1ccc(OCc2nnc(CCCCCCCCc3nnc(COc4ccc(Cl)cc4)n3Nc3ccccc3)n2Nc2ccccc2)cc1	> 100	–	> 100	> 100	> 100	> 95.1	> 100	63.5	58	> 100
NC1CNC(=O)c2c(Cl)sc(Cl)c21 (stereo not given)	> 100	–	> 100	> 100	> 100	> 100	> 100	> 100	> 100	> 100
O=C(O)C(CO)NC(=O)n1c2ccccc2c2ccccc21 (stereo not given)	> 100	> 100	–	–	> 100	–	> 100	> 100	> 100	–
O=C(CC1=NCCN1)c1ccccc1	> 750	> 511	–	> 750	> 750	> 750	742	> 750	–	–
CN(C)CCn1c(=O)c2ccc(NCCCN(C)CCCNc3ccc4c(=O)n(CCN(C)C)c(=O)n5c6ccc([N+](=O)[O-])cc6c(=O)c3c45)c3c(=O)c4cc([N+](=O)[O-])ccc4n(c1=O)c23	0.886	–	0.293	0.608	–	0.705	–	–	0.385	–
O=c1[nH]nc(-c2ccccc2)c2[nH]c(-c3ccccc3)cc12	> 100	> 100	–	–	> 100	> 100	–	–	> 100	> 100
O=C(O)C(CS)N=c1c2ccccc2n(O)c2ccccc12 (stereo not given)	> 100	> 100	–	–	> 100	> 100	> 100	> 100	> 100	–
Cc1cc2ncc3c(=O)n(NS(=O)(=O)c4ccc(N)cc4)ccc3n2n1	> 100	> 100	> 100	> 100	–	> 100	> 100	> 100	> 100	> 100
